Test results from PMC5218480 (PLoS ONE, 2017).

System: MV-4-11 cells
Assay: Gene expression microarray analysis (Affymetrix PrimeView) and GSEA
Type: cell-based, human
Set-up: RFU PODN (11730768_x_at) / Fold change /veh PODN (11730768_x_at) / RFU LINC00158 (11744669_a_at) / Fold change /veh LINC00158 (11744669_a_at) / RFU DUSP10 (11751237_a_at) / Fold change /veh DUSP10 (11751237_a_at) / RFU ID3 (11757404_x_at) / Fold change /veh ID3 (11757404_x_at) / RFU PLEKHG5 (11737974_s_at) / Fold change /veh PLEKHG5 (11737974_s_at) / RFU LRRC4B (11730491_at) / Fold change /veh LRRC4B (11730491_at) / RFU GIMAP4 (11747438_a_at) / Fold change /veh GIMAP4 (11747438_a_at) / RFU KRT8 (11758183_x_at) / Fold change /veh KRT8 (11758183_x_at) / RFU CNN1 (11734310_a_at) / Fold change /veh CNN1 (11734310_a_at) / RFU VPS37D (11726825_at) / Fold change /veh VPS37D (11726825_at) / RFU C10orf10 (11716522_x_at) / Fold change /veh C10orf10 (11716522_x_at) / RFU KIR2DL2 /// KIR2DL4 /// KIR2DL5A /// KIR2DL5B /// KIR2DS1 /// KIR2DS2 /// KIR2DS3 /// KIR2DS4 /// KIR3DL3 /// KIR3DL3 /// KIR3DS1 (11738374_at) / Fold change /veh KIR2DL2 /// KIR2DL4 /// KIR2DL5A /// KIR2DL5B /// KIR2DS1 /// KIR2DS2 /// KIR2DS3 /// KIR2DS4 /// KIR3DL3 /// KIR3DL3 /// KIR3DS1 (11738374_at) / RFU C1QL1 (11718748_at) / Fold change /veh C1QL1 (11718748_at) / RFU TMPRSS4 (11747572_a_at) / Fold change /veh TMPRSS4 (11747572_a_at) / RFU HAMP (11756126_x_at) / Fold change /veh HAMP (11756126_x_at) / RFU RNFT2 (11725882_a_at) / Fold change /veh RNFT2 (11725882_a_at) / RFU NR4A2 (11747474_a_at) / Fold change /veh NR4A2 (11747474_a_at) / RFU ABCC12 (11746883_a_at) / Fold change /veh ABCC12 (11746883_a_at) / RFU TMEM136 (11760407_x_at) / Fold change /veh TMEM136 (11760407_x_at) / RFU CLDN22 /// WWC2 (11732394_at) / Fold change /veh CLDN22 /// WWC2 (11732394_at) / RFU HLA-DPB1 (11760878_x_at) / Fold change /veh HLA-DPB1 (11760878_x_at) / RFU SPINT1 (11716480_a_at) / Fold change /veh SPINT1 (11716480_a_at) / RFU GAP43 (11754022_s_at) / Fold change /veh GAP43 (11754022_s_at) / RFU A4GNT (11735810_at) / Fold change /veh A4GNT (11735810_at) / RFU PRB3 (11715151_x_at) / Fold change /veh PRB3 (11715151_x_at) / RFU TUBB4B (11761932_at) / Fold change /veh TUBB4B (11761932_at) / RFU CAPN14 (11732068_a_at) / Fold change /veh CAPN14 (11732068_a_at) / RFU TMCC2 (11721928_a_at) / Fold change /veh TMCC2 (11721928_a_at) / RFU IRGQ (11745062_a_at) / Fold change /veh IRGQ (11745062_a_at) / RFU FAM174B (11720279_a_at) / Fold change /veh FAM174B (11720279_a_at) / RFU TMPRSS4 (11748680_a_at) / Fold change /veh TMPRSS4 (11748680_a_at) / RFU FAM212B (11763350_a_at) / Fold change /veh FAM212B (11763350_a_at) / RFU PLEKHG5 (11743358_a_at) / Fold change /veh PLEKHG5 (11743358_a_at) / RFU ZSCAN30 (11745921_a_at) / Fold change /veh ZSCAN30 (11745921_a_at) / RFU CMKLR1 (11741424_a_at) / Fold change /veh CMKLR1 (11741424_a_at) / RFU LOC101060620 /// MAPK8IP1 (11723275_at) / Fold change /veh LOC101060620 /// MAPK8IP1 (11723275_at) / RFU SPTSSB (11747773_x_at) / Fold change /veh SPTSSB (11747773_x_at) / RFU PRSS12 (11739890_at) / Fold change /veh PRSS12 (11739890_at) / RFU BIN1 (11741810_x_at) / Fold change /veh BIN1 (11741810_x_at) / RFU WNT11 (11732464_a_at) / Fold change /veh WNT11 (11732464_a_at) / RFU C10orf10 (11716521_a_at) / Fold change /veh C10orf10 (11716521_a_at) / RFU C5orf56 (11738089_at) / Fold change /veh C5orf56 (11738089_at) / RFU CYB561 (11721691_x_at) / Fold change /veh CYB561 (11721691_x_at) / RFU ANKRD19P (11752326_a_at) / Fold change /veh ANKRD19P (11752326_a_at) / RFU OR2T12 /// OR2T33 /// OR2T8 (11738714_s_at) / Fold change /veh OR2T12 /// OR2T33 /// OR2T8 (11738714_s_at) / RFU VCAN (11748164_a_at) / Fold change /veh VCAN (11748164_a_at) / RFU JSRP1 (11732532_at) / Fold change /veh JSRP1 (11732532_at) / RFU KRTAP10-11 (11738290_x_at) / Fold change /veh KRTAP10-11 (11738290_x_at) / RFU MYO3A (11730013_a_at) / Fold change /veh MYO3A (11730013_a_at) / RFU EBF3 (11725865_a_at) / Fold change /veh EBF3 (11725865_a_at) / RFU CAMK2N1 (11719241_x_at) / Fold change /veh CAMK2N1 (11719241_x_at) / RFU C5orf56 (11738088_a_at) / Fold change /veh C5orf56 (11738088_a_at) / RFU OLFML3 (11715873_a_at) / Fold change /veh OLFML3 (11715873_a_at) / RFU LOC100653217 /// NTM (11731650_a_at) / Fold change /veh LOC100653217 /// NTM (11731650_a_at) / RFU MAPK11 (11762145_a_at) / Fold change /veh MAPK11 (11762145_a_at) / RFU FIZ1 (11724087_x_at) / Fold change /veh FIZ1 (11724087_x_at) / RFU OASL (11726364_x_at) / Fold change /veh OASL (11726364_x_at) / RFU SOX15 (11748057_x_at) / Fold change /veh SOX15 (11748057_x_at) / RFU CD79A (11719716_a_at) / Fold change /veh CD79A (11719716_a_at) / RFU HIST1H1D (11736915_at) / Fold change /veh HIST1H1D (11736915_at) / RFU CASKIN2 (11723855_a_at) / Fold change /veh CASKIN2 (11723855_a_at) / RFU LOC730098 (11760151_x_at) / Fold change /veh LOC730098 (11760151_x_at) / RFU OR4N2 (11742367_at) / Fold change /veh OR4N2 (11742367_at) / RFU PRRT2 (11749266_a_at) / Fold change /veh PRRT2 (11749266_a_at) / RFU SNX32 (11753110_a_at) / Fold change /veh SNX32 (11753110_a_at) / RFU CDHR5 (11726645_a_at) / Fold change /veh CDHR5 (11726645_a_at) / RFU RCAN1 (11760418_a_at) / Fold change /veh RCAN1 (11760418_a_at) / RFU FAM167A (11723789_a_at) / Fold change /veh FAM167A (11723789_a_at) / RFU FAM26E (11764081_at) / Fold change /veh FAM26E (11764081_at) / RFU ISYNA1 (11749810_s_at) / Fold change /veh ISYNA1 (11749810_s_at) / RFU ACY1 (11761880_at) / Fold change /veh ACY1 (11761880_at) / RFU 11764098_at / Fold change /veh 11764098_at / RFU SAMD14 (11745864_x_at) / Fold change /veh SAMD14 (11745864_x_at) / RFU NPB (11741838_a_at) / Fold change /veh NPB (11741838_a_at) / RFU TMPRSS6 (11731388_a_at) / Fold change /veh TMPRSS6 (11731388_a_at) / RFU KRTAP10-2 (11738614_at) / Fold change /veh KRTAP10-2 (11738614_at) / RFU ARHGAP8 /// PRR5-ARHGAP8 (11727945_x_at) / Fold change /veh ARHGAP8 /// PRR5-ARHGAP8 (11727945_x_at) / RFU KRTAP5-7 /// NADSYN1 (11734609_at) / Fold change /veh KRTAP5-7 /// NADSYN1 (11734609_at) / RFU RASL12 (11751679_a_at) / Fold change /veh RASL12 (11751679_a_at) / RFU CDKN2B (11736163_a_at) / Fold change /veh CDKN2B (11736163_a_at) / RFU PRF1 (11729649_at) / Fold change /veh PRF1 (11729649_at) / RFU, ZNF638 /// ZNF638-IT1 / Fold change vs veh, ZNF638 /// ZNF638-IT1 / RFU, PANK3 / Fold change vs veh, PANK3 / RFU, SH3YL1 / Fold change vs veh, SH3YL1 / RFU, ZEB2 / Fold change vs veh, ZEB2 / RFU, NRIP1 / Fold change vs veh, NRIP1 / RFU, PTTG1IP / Fold change vs veh, PTTG1IP / RFU, CAPN2 / Fold change vs veh, CAPN2 / RFU, MED14 / Fold change vs veh, MED14 / RFU, SNORA58 / Fold change vs veh, SNORA58 / RFU, C1orf63 / Fold change vs veh, C1orf63 / RFU, LRRFIP1 / Fold change vs veh, LRRFIP1 / RFU, NDUFAF7 / Fold change vs veh, NDUFAF7 / RFU, SLC12A2 / Fold change vs veh, SLC12A2 / RFU, IBTK / Fold change vs veh, IBTK / RFU, ESF1 / Fold change vs veh, ESF1 / Fold change vs veh, TMEM50B / RFU, TAOK1 / Fold change vs veh, TAOK1 / RFU, ACBD3 / Fold change vs veh, ACBD3 / RFU, TMA16 / Fold change vs veh, TMA16 / RFU, RWDD3 / Fold change vs veh, RWDD3 / RFU, BCAT1 / Fold change vs veh, BCAT1 / RFU, EDEM3 / Fold change vs veh, EDEM3 / RFU, TMEM33 / Fold change vs veh, TMEM33 / RFU, WDR75 / Fold change vs veh, WDR75 / RFU, AHCTF1 / Fold change vs veh, AHCTF1 / RFU, TFRC / Fold change vs veh, TFRC / RFU, ZDHHC17 / Fold change vs veh, ZDHHC17 / RFU, NOM1 / Fold change vs veh, NOM1 / RFU, ARL8B / Fold change vs veh, ARL8B / RFU, ZBTB11 / Fold change vs veh, ZBTB11 / RFU, TAMM41 / Fold change vs veh, TAMM41 / RFU, KIAA1704 /// LOC100996395 / Fold change vs veh, KIAA1704 /// LOC100996395 / RFU, ING1 / Fold change vs veh, ING1 / RFU, TRMT61B / Fold change vs veh, TRMT61B / RFU, FUBP3 / Fold change vs veh, FUBP3 / RFU, TP53 / Fold change vs veh, TP53 / RFU, TNKS2 / Fold change vs veh, TNKS2 / RFU, ZFP14 / Fold change vs veh, ZFP14 / RFU, ACTR2 / Fold change vs veh, ACTR2 / RFU, PPP3R1 / Fold change vs veh, PPP3R1 / RFU, PIK3R1 / Fold change vs veh, PIK3R1 / RFU, HNRNPA1 / Fold change vs veh, HNRNPA1 / RFU, RNF170 / Fold change vs veh, RNF170 / RFU, ZNF28 / Fold change vs veh, ZNF28 / RFU, RNGTT / Fold change vs veh, RNGTT / RFU, OGT / Fold change vs veh, OGT / RFU, BRD1 / Fold change vs veh, BRD1 / RFU, MARS / Fold change vs veh, MARS / RFU, ZNF655 / Fold change vs veh, ZNF655 / RFU, FAHD1 / Fold change vs veh, FAHD1 / RFU, BDP1 / Fold change vs veh, BDP1 / RFU, LRRCC1 / Fold change vs veh, LRRCC1 / RFU, ARID1A / Fold change vs veh, ARID1A / RFU, ZNF146 / Fold change vs veh, ZNF146 / RFU, ZNF330 / Fold change vs veh, ZNF330 / RFU, GPN3 / Fold change vs veh, GPN3 / RFU, C9orf123 / Fold change vs veh, C9orf123 / RFU, N4BP2L2 / Fold change vs veh, N4BP2L2 / RFU, ARFIP1 / Fold change vs veh, ARFIP1 / RFU, FAM179B / Fold change vs veh, FAM179B / RFU, BCL10 / Fold change vs veh, BCL10 / RFU, UHRF1BP1L / Fold change vs veh, UHRF1BP1L / RFU, BET1 / Fold change vs veh, BET1 / RFU, CNOT2 / Fold change vs veh, CNOT2 / RFU, ZNF268 / Fold change vs veh, ZNF268 / Fold change vs veh, ZNF507 / RFU, DGCR2 / Fold change vs veh, DGCR2 / RFU, WDSUB1 / Fold change vs veh, WDSUB1 / Fold change vs veh, HSP90B1 /// MIR3652 / RFU, ADSS / Fold change vs veh, ADSS / RFU, GK / Fold change vs veh, GK / RFU, ZNF148 / Fold change vs veh, ZNF148 / RFU, TAF9 / Fold change vs veh, TAF9 / RFU, SLC1A5 / Fold change vs veh, SLC1A5 / RFU, SLMO2 / Fold change vs veh, SLMO2 / RFU, ABCC4 / Fold change vs veh, ABCC4 / RFU, LOC101060439 /// RAP1B / Fold change vs veh, LOC101060439 /// RAP1B / RFU, RFX7 / Fold change vs veh, RFX7 / RFU, GTPBP10 / Fold change vs veh, GTPBP10 / RFU, CNEP1R1 / Fold change vs veh, CNEP1R1 / RFU, BIVM-ERCC5 /// ERCC5 / Fold change vs veh, BIVM-ERCC5 /// ERCC5 / RFU, ILF3 / Fold change vs veh, ILF3 / RFU 11762660_at / Fold change /veh 11762660_at / RFU VCAN (11757783_s_at) / Fold change /veh VCAN (11757783_s_at) / RFU DDX43 (11728927_at) / Fold change /veh DDX43 (11728927_at) / RFU KRT8 (11758188_x_at) / Fold change /veh KRT8 (11758188_x_at) / RFU NKD1 (11759106_at) / Fold change /veh NKD1 (11759106_at) / RFU SRD5A1 (11742802_a_at) / Fold change /veh SRD5A1 (11742802_a_at) / RFU TPSAB1 /// TPSB2 (11721975_s_at) / Fold change /veh TPSAB1 /// TPSB2 (11721975_s_at) / RFU GSTM3 (11746129_a_at) / Fold change /veh GSTM3 (11746129_a_at) / RFU IL23R (11737362_x_at) / Fold change /veh IL23R (11737362_x_at) / RFU TMEM51 (11727254_a_at) / Fold change /veh TMEM51 (11727254_a_at) / RFU PIWIL2 (11732686_x_at) / Fold change /veh PIWIL2 (11732686_x_at) / RFU ORM1 (11744905_x_at) / Fold change /veh ORM1 (11744905_x_at) / RFU CCDC152 (11743942_at) / Fold change /veh CCDC152 (11743942_at) / RFU ECM1 (11717891_a_at) / Fold change /veh ECM1 (11717891_a_at) / RFU IL23R (11748794_a_at) / Fold change /veh IL23R (11748794_a_at) / RFU TNFAIP8L3 (11732012_x_at) / Fold change /veh TNFAIP8L3 (11732012_x_at) / RFU MBOAT4 (11741988_at) / Fold change /veh MBOAT4 (11741988_at) / RFU 11764193_at / Fold change /veh 11764193_at / RFU TMEM53 (11763286_at) / Fold change /veh TMEM53 (11763286_at) / RFU MAGEB2 (11727129_at) / Fold change /veh MAGEB2 (11727129_at) / RFU TMEM200A (11744735_a_at) / Fold change /veh TMEM200A (11744735_a_at) / RFU CCDC152 (11751479_a_at) / Fold change /veh CCDC152 (11751479_a_at) / RFU FAM211A (11726209_a_at) / Fold change /veh FAM211A (11726209_a_at) / RFU RGS16 (11746705_a_at) / Fold change /veh RGS16 (11746705_a_at) / RFU VCAN (11755009_s_at) / Fold change /veh VCAN (11755009_s_at) / RFU RHOB (11743442_s_at) / Fold change /veh RHOB (11743442_s_at) / RFU RGS16 (11720943_a_at) / Fold change /veh RGS16 (11720943_a_at) / RFU RGS16 (11720944_at) / Fold change /veh RGS16 (11720944_at) / RFU, VPS4B / Fold change vs veh, VPS4B / RFU, CREB1 / Fold change vs veh, CREB1 / RFU, DNAJC13 / Fold change vs veh, DNAJC13 / RFU, GNAQ / Fold change vs veh, GNAQ / RFU, CDK5R1 / Fold change vs veh, CDK5R1 / RFU, ZRANB3 / Fold change vs veh, ZRANB3 / RFU, CUL4A / Fold change vs veh, CUL4A / RFU, CCNY / Fold change vs veh, CCNY / RFU, UFL1 / Fold change vs veh, UFL1 / RFU, COG3 / Fold change vs veh, COG3 / RFU, DIAPH2 / Fold change vs veh, DIAPH2 / RFU, SKA2 / Fold change vs veh, SKA2 / RFU, AFF3 / Fold change vs veh, AFF3 / RFU, LMF1 / Fold change vs veh, LMF1 / RFU, IPO11 / Fold change vs veh, IPO11 / RFU, DFFB / Fold change vs veh, DFFB / RFU, FOXP1 / Fold change vs veh, FOXP1 / RFU, CARD8 / Fold change vs veh, CARD8 / RFU, STRN3 / Fold change vs veh, STRN3 / RFU, ADK / Fold change vs veh, ADK / RFU, RASSF2 / Fold change vs veh, RASSF2 / RFU, WIPF1 / Fold change vs veh, WIPF1 / RFU, LARP1B / Fold change vs veh, LARP1B / RFU, RASA1 / Fold change vs veh, RASA1 / RFU, RB1 / Fold change vs veh, RB1 / RFU, PPFIA1 / Fold change vs veh, PPFIA1 / RFU, MAT2A / Fold change vs veh, MAT2A / RFU, CCT5 / Fold change vs veh, CCT5 / RFU, WDR92 / Fold change vs veh, WDR92 / RFU, CUX1 / Fold change vs veh, CUX1 / RFU, TTC7A / Fold change vs veh, TTC7A / RFU, TMEM135 / Fold change vs veh, TMEM135 / RFU, DEPTOR / Fold change vs veh, DEPTOR / RFU, CPM / Fold change vs veh, CPM / RFU, DNAJB6 / Fold change vs veh, DNAJB6 / RFU, CACNA2D3 / Fold change vs veh, CACNA2D3 / RFU, DTX4 / Fold change vs veh, DTX4 / RFU, TFCP2 / Fold change vs veh, TFCP2 / RFU, GMCL1 /// GMCL1P1 / Fold change vs veh, GMCL1 /// GMCL1P1 / RFU, AEBP2 / Fold change vs veh, AEBP2 / RFU, SNHG1 /// SNORD22 /// SNORD25 /// SNORD26 /// SNORD27 /// SNORD28 /// SNORD29 /// SNORD31 / Fold change vs veh, SNHG1 /// SNORD22 /// SNORD25 /// SNORD26 /// SNORD27 /// SNORD28 /// SNORD29 /// SNORD31 / Fold change (Aza/veh), C12orf56 (ProbeSet 11735607_a_at) / Fold change (ACY-1035/veh), C12orf56 (ProbeSet 11735607_a_at) / Fold change (Aza/veh), FGFR1OP (ProbeSet 11751329_s_at) / Fold change (ACY-1035/veh), FGFR1OP (ProbeSet 11751329_s_at) / Fold change (Aza/veh), VPS36 (ProbeSet 11739960_a_at) / Fold change (ACY-1035/veh), VPS36 (ProbeSet 11739960_a_at) / RFU SYPL1 (11715823_x_at) / Fold change /veh SYPL1 (11715823_x_at) / RFU IGFBP7 (11715501_s_at) / Fold change /veh IGFBP7 (11715501_s_at) / RFU REEP3 (11722064_at) / Fold change /veh REEP3 (11722064_at) / RFU IGLL1 (11728026_x_at) / Fold change /veh IGLL1 (11728026_x_at): dose or concentration left out as unconfirmed
Details: MV-4-11 cells, 48 hours

SMILES: Nc1ccc(-c2cccs2)cc1NC(=O)c1ccc2c(c1)cc(C1CC1)n2CCN1CCOCC1 [ACY-1035]
- RFU GAP43 (11754022_s_at): 68.94 RFU
